One block for each molecule: values may come before it.
Experiments:
[1] = In vivo radioactivity distribution experiment of 125I-labeled aurone derivatives in normal mice (Example 2, Table 15); details: tail vein
Experimental: Animals were decapitated at 2, 10, 30 or 60 min after the injection, and the blood was collected. Then, major organs were removed, and weights and radioactivities thereof were measured.
In vivo radioactivity distribution experiments of ^125I-labeled aurone derivatives were performed using 5-week-old normal mice.

[2] = In vivo radioactivity biodistribution experiment in normal mice (Example 1, Table 13); set-up: species or system ddY mice
Experimental: ^125I-labeled compounds were diluted with 10% ethanol-containing physiological saline. […] After their blood was collected, organs were removed, and the weights and radioactivities thereof were measured.
When any of the aurone derivatives was used, sufficient radioactivity to perform imaging of intracerebral amyloid migrated to the brain from the early stage of injection (1.7-4.6% ID/g). […] It was also shown that, in any of the aurone derivatives, in vivo radioactivity behavior is discharged mainly from the liver to the bile duct and the intestinal tract.

Structure (SMILES): O=C1/C(=C/c2ccc(OCCO)cc2)Oc2ccc([125I])cc21 [[125I]26]
Radioactivity distribution, Blood, Mean ([1]; 2 min after injection): 4.97 % ID/g | Radioactivity distribution, Blood, Mean ([1]; 10 min after injection): 3.88 % ID/g | Radioactivity distribution, Blood, Mean ([1]; 30 min after injection): 2.38 % ID/g | Radioactivity distribution, Blood, Mean ([1]; 60 min after injection): 1.24 % ID/g | Radioactivity distribution, Brain, Mean ([1]; 2 min after injection): 4.51 % ID/g | Radioactivity distribution, Brain, Mean ([1]; 10 min after injection): 1.49 % ID/g | Radioactivity distribution, Brain, Mean ([1]; 30 min after injection): 0.24 % ID/g | Radioactivity distribution, Brain, Mean ([1]; 60 min after injection): 0.09 % ID/g

Structure (SMILES): O=C1/C(=C/c2ccc(OCCOCCO)cc2)Oc2ccc([125I])cc21 [[125I]27]
Radioactivity distribution, Blood, Mean ([1]; 2 min after injection): 3.61 % ID/g | Radioactivity distribution, Blood, Mean ([1]; 10 min after injection): 5.18 % ID/g | Radioactivity distribution, Blood, Mean ([1]; 30 min after injection): 1.11 % ID/g | Radioactivity distribution, Blood, Mean ([1]; 60 min after injection): 0.68 % ID/g | Radioactivity distribution, Brain, Mean ([1]; 2 min after injection): 3.69 % ID/g | Radioactivity distribution, Brain, Mean ([1]; 10 min after injection): 1.53 % ID/g | Radioactivity distribution, Brain, Mean ([1]; 30 min after injection): 0.38 % ID/g | Radioactivity distribution, Brain, Mean ([1]; 60 min after injection): 0.16 % ID/g

Continued, values first:

Radioactivity distribution, Blood, Mean ([1]; 2 min after injection): 4.75 % ID/g | Radioactivity distribution, Blood, Mean ([1]; 10 min after injection): 2.70 % ID/g | Radioactivity distribution, Blood, Mean ([1]; 30 min after injection): 1.13 % ID/g | Radioactivity distribution, Blood, Mean ([1]; 60 min after injection): 0.55 % ID/g | Radioactivity distribution, Brain, Mean ([1]; 2 min after injection): 2.81 % ID/g | Radioactivity distribution, Brain, Mean ([1]; 10 min after injection): 0.84 % ID/g | Radioactivity distribution, Brain, Mean ([1]; 30 min after injection): 0.18 % ID/g | Radioactivity distribution, Brain, Mean ([1]; 60 min after injection): 0.08 % ID/g
Structure (SMILES): O=C1/C(=C/c2ccc(OCCOCCOCCO)cc2)Oc2ccc([125I])cc21 [[125I]28]

Biodistribution of radioactivity, Blood ([2]; 2 min after injection): 3.16 (0.82) % injected dose per gram | Biodistribution of radioactivity, Blood ([2]; 10 min after injection): 1.51 (0.23) % injected dose per gram | Biodistribution of radioactivity, Blood ([2]; 30 min after injection): 0.95 (0.19) % injected dose per gram | Biodistribution of radioactivity, Blood ([2]; 60 min after injection): 0.70 (0.60) % injected dose per gram | Biodistribution of radioactivity, Brain ([2]; 2 min after injection): 1.69 (0.43) % injected dose per gram | Biodistribution of radioactivity, Brain ([2]; 10 min after injection): 0.54 (0.12) % injected dose per gram | Biodistribution of radioactivity, Brain ([2]; 30 min after injection): 0.11 (0.05) % injected dose per gram | Biodistribution of radioactivity, Brain ([2]; 60 min after injection): 0.03 (0.02) % injected dose per gram | Biodistribution of radioactivity, Heart ([2]; 2 min after injection): 3.84 (1.04) % injected dose per gram | Biodistribution of radioactivity, Heart ([2]; 10 min after injection): 1.06 (0.10) % injected dose per gram | Biodistribution of radioactivity, Heart ([2]; 30 min after injection): 0.37 (0.09) % injected dose per gram | Biodistribution of radioactivity, Heart ([2]; 60 min after injection): 0.25 (0.12) % injected dose per gram | Biodistribution of radioactivity, Intestine ([2]; 2 min after injection): 1.59 (0.51) % injected dose per gram | Biodistribution of radioactivity, Intestine ([2]; 10 min after injection): 4.70 (1.46) % injected dose per gram | Biodistribution of radioactivity, Intestine ([2]; 30 min after injection): 11.67 (3.56) % injected dose per gram | Biodistribution of radioactivity, Intestine ([2]; 60 min after injection): 9.02 (3.14) % injected dose per gram | Biodistribution of radioactivity, Kidney ([2]; 2 min after injection): 7.26 (2.18) % injected dose per gram | Biodistribution of radioactivity, Kidney ([2]; 10 min after injection): 7.00 (1.49) % injected dose per gram | Biodistribution of radioactivity, Kidney ([2]; 30 min after injection): 4.93 (1.52) % injected dose per gram | Biodistribution of radioactivity, Kidney ([2]; 60 min after injection): 2.43 (1.17) % injected dose per gram | Biodistribution of radioactivity, Liver ([2]; 2 min after injection): 6.87 (2.18) % injected dose per gram | Biodistribution of radioactivity, Liver ([2]; 10 min after injection): 5.16 (0.73) % injected dose per gram | Biodistribution of radioactivity, Liver ([2]; 30 min after injection): 2.76 (0.40) % injected dose per gram | Biodistribution of radioactivity, Liver ([2]; 60 min after injection): 1.86 (0.83) % injected dose per gram | Biodistribution of radioactivity, Lung ([2]; 2 min after injection): 6.71 (1.39) % injected dose per gram | Biodistribution of radioactivity, Lung ([2]; 10 min after injection): 1.76 (0.29) % injected dose per gram | Biodistribution of radioactivity, Lung ([2]; 30 min after injection): 0.97 (0.20) % injected dose per gram | Biodistribution of radioactivity, Lung ([2]; 60 min after injection): 0.75 (0.33) % injected dose per gram | Biodistribution of radioactivity, Pancreas ([2]; 2 min after injection): 2.83 (0.75) % injected dose per gram | Biodistribution of radioactivity, Pancreas ([2]; 10 min after injection): 0.77 (0.17) % injected dose per gram | Biodistribution of radioactivity, Pancreas ([2]; 30 min after injection): 0.29 (0.14) % injected dose per gram | Biodistribution of radioactivity, Pancreas ([2]; 60 min after injection): 0.16 (0.05) % injected dose per gram | Biodistribution of radioactivity, Spleen ([2]; 2 min after injection): 1.45 (0.56) % injected dose per gram | Biodistribution of radioactivity, Spleen ([2]; 10 min after injection): 0.74 (0.10) % injected dose per gram | Biodistribution of radioactivity, Spleen ([2]; 30 min after injection): 0.48 (0.10) % injected dose per gram | Biodistribution of radioactivity, Spleen ([2]; 60 min after injection): 0.43 (0.14) % injected dose per gram | Biodistribution of radioactivity, Stomach ([2]; 2 min after injection): 0.68 (0.33) % injected dose per organ | Biodistribution of radioactivity, Stomach ([2]; 10 min after injection): 1.06 (0.66) % injected dose per organ | Biodistribution of radioactivity, Stomach ([2]; 30 min after injection): 0.48 (0.09) % injected dose per organ | Biodistribution of radioactivity, Stomach ([2]; 60 min after injection): 0.96 (0.46) % injected dose per organ
Structure (SMILES): COc1ccc(/C=C2\Oc3ccc([125I])cc3C2=O)cc1 [[^125I]17]

Biodistribution of radioactivity, Blood ([2]; 2 min after injection): 3.14 (0.73) % injected dose per gram | Biodistribution of radioactivity, Blood ([2]; 10 min after injection): 2.77 (0.28) % injected dose per gram | Biodistribution of radioactivity, Blood ([2]; 30 min after injection): 1.75 (0.38) % injected dose per gram | Biodistribution of radioactivity, Blood ([2]; 60 min after injection): 0.87 (0.28) % injected dose per gram | Biodistribution of radioactivity, Brain ([2]; 2 min after injection): 3.07 (0.39) % injected dose per gram | Biodistribution of radioactivity, Brain ([2]; 10 min after injection): 1.48 (0.19) % injected dose per gram | Biodistribution of radioactivity, Brain ([2]; 30 min after injection): 0.37 (0.07) % injected dose per gram | Biodistribution of radioactivity, Brain ([2]; 60 min after injection): 0.14 (0.12) % injected dose per gram | Biodistribution of radioactivity, Heart ([2]; 2 min after injection): 6.23 (0.63) % injected dose per gram | Biodistribution of radioactivity, Heart ([2]; 10 min after injection): 2.57 (0.41) % injected dose per gram | Biodistribution of radioactivity, Heart ([2]; 30 min after injection): 0.98 (0.14) % injected dose per gram | Biodistribution of radioactivity, Heart ([2]; 60 min after injection): 0.42 (0.09) % injected dose per gram | Biodistribution of radioactivity, Intestine ([2]; 2 min after injection): 2.11 (0.75) % injected dose per gram | Biodistribution of radioactivity, Intestine ([2]; 10 min after injection): 6.12 (0.83) % injected dose per gram | Biodistribution of radioactivity, Intestine ([2]; 30 min after injection): 12.67 (2.13) % injected dose per gram | Biodistribution of radioactivity, Intestine ([2]; 60 min after injection): 14.87 (5.42) % injected dose per gram | Biodistribution of radioactivity, Kidney ([2]; 2 min after injection): 11.08 (2.96) % injected dose per gram | Biodistribution of radioactivity, Kidney ([2]; 10 min after injection): 11.22 (2.26) % injected dose per gram | Biodistribution of radioactivity, Kidney ([2]; 30 min after injection): 5.82 (1.11) % injected dose per gram | Biodistribution of radioactivity, Kidney ([2]; 60 min after injection): 2.43 (1.04) % injected dose per gram | Biodistribution of radioactivity, Liver ([2]; 2 min after injection): 6.05 (1.49) % injected dose per gram | Biodistribution of radioactivity, Liver ([2]; 10 min after injection): 6.63 (1.08) % injected dose per gram | Biodistribution of radioactivity, Liver ([2]; 30 min after injection): 4.23 (0.63) % injected dose per gram | Biodistribution of radioactivity, Liver ([2]; 60 min after injection): 4.45 (3.14) % injected dose per gram | Biodistribution of radioactivity, Lung ([2]; 2 min after injection): 6.69 (0.86) % injected dose per gram | Biodistribution of radioactivity, Lung ([2]; 10 min after injection): 3.14 (0.23) % injected dose per gram | Biodistribution of radioactivity, Lung ([2]; 30 min after injection): 1.62 (0.22) % injected dose per gram | Biodistribution of radioactivity, Lung ([2]; 60 min after injection): 0.80 (0.19) % injected dose per gram | Biodistribution of radioactivity, Pancreas ([2]; 2 min after injection): 5.28 (0.99) % injected dose per gram | Biodistribution of radioactivity, Pancreas ([2]; 10 min after injection): 2.65 (0.64) % injected dose per gram | Biodistribution of radioactivity, Pancreas ([2]; 30 min after injection): 0.92 (0.19) % injected dose per gram | Biodistribution of radioactivity, Pancreas ([2]; 60 min after injection): 0.36 (0.09) % injected dose per gram | Biodistribution of radioactivity, Spleen ([2]; 2 min after injection): 2.18 (0.48) % injected dose per gram | Biodistribution of radioactivity, Spleen ([2]; 10 min after injection): 1.36 (0.15) % injected dose per gram | Biodistribution of radioactivity, Spleen ([2]; 30 min after injection): 0.69 (0.14) % injected dose per gram | Biodistribution of radioactivity, Spleen ([2]; 60 min after injection): 0.42 (0.02) % injected dose per gram | Biodistribution of radioactivity, Stomach ([2]; 2 min after injection): 1.30 (0.43) % injected dose per organ | Biodistribution of radioactivity, Stomach ([2]; 10 min after injection): 2.53 (0.97) % injected dose per organ | Biodistribution of radioactivity, Stomach ([2]; 30 min after injection): 2.82 (1.88) % injected dose per organ | Biodistribution of radioactivity, Stomach ([2]; 60 min after injection): 2.26 (0.88) % injected dose per organ
Structure (SMILES): O=C1/C(=C/c2ccc(O)cc2)Oc2ccc([125I])cc21 [[^125I]20]

Reference: US20100003191A1, “AURONE DERIVATIVE-CONTAINING COMPOSITION FOR DIAGNOSIS” (NAGASAKI UNIVERSITY, priority 2006, published 2010)
